Source: publication PMC7297817, “Pharmacological Characterization of a Betaine/GABA Transporter 1 (BGT1) Inhibitor Displaying an Unusual Biphasic Inhibition Profile and Anti-seizure Effects” (Neurochemical Research, 2020)
Where two headings read alike, the source gives them in different places.

Key:
D5 = biological target: T1, D5 (Homo sapiens, UniProt P21918); experiment: NIMH PDSP radioligand binding, D5; conditions: radioligand [3H]SCH23390
T1 construct: NIMH PDSP (screening service)

M2 = biological target: T2, M2 (Homo sapiens, UniProt P08172); experiment: NIMH PDSP radioligand binding, M2
T2 construct: purchased NIMH Psychoactive Drug Screening Program (PDSP)

DOR = biological target: T3, DOR (Homo sapiens, UniProt P41143); experiment: NIMH PDSP radioligand binding, DOR; conditions: radioligand [3H]DADLE, n=4
T3 construct: purchased NIMH Psychoactive Drug Screening Program (PDSP)
T3 sequence (P41143 whole entry): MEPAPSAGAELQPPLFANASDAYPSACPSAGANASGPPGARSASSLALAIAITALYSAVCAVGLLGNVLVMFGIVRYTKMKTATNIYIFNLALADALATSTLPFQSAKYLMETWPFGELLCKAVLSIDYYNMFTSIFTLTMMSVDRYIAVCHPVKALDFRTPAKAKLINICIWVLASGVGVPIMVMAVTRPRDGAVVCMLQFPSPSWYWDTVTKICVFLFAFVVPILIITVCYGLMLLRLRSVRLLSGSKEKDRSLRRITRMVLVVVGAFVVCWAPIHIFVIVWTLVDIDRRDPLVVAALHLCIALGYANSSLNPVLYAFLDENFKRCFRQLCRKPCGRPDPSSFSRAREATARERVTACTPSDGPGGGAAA

hGAT3 L314Q = biological target: T4, hGAT3 L314Q (Homo sapiens, UniProt P48066, L314Q); experiment: [3H]GABA uptake at hGAT3 L314Q mutant transiently expressed in tsA201 cells; type: cell-based; conditions: 30 nM [3H]GABA, 3 min
T4 construct: expressed in transfected cells; host or cells: tsA201 (transient)
Procedure: (§1) The HEK-293 and Flp-In CHO cell lines stably expressing mouse (m) and human (h) GATs, respectively, have been described previously and were cultured accordingly. The tsA201 cell line was used for transient expression while the MDCK II cell line express BGT1 endogenously. Both cell lines were cultured as described. tsA201 cells were transfected with DNA constructs (8 μg per 10 cm dish if not otherwise mentioned) using 40 μL PolyFect transfection reagent according to the manufacturer’s protocol (Qiagen, Venlo, Netherlands). The DNA constructs encoding hBGT1, hGAT1-3 [36], the mutated constructs hBGT1 Q299 and hGAT3 L314Q described previously, and hBGT Y453A were synthesized and sequence validated by Genscript (NJ, USA).
(§2) The [^3H]GABA competition uptake assay was performed as previously described. A minor change, however, was introduced for uptake in MDCK II cells, in which 100 nM [^3H]GABA was used for a 15 min incubation period at 37 °C instead of 30 nM [^3H]GABA and 3 min incubation. Studies related to the inhibition curves with GABA and BPDBA at hBGT1 were obtained both with and without the presence of 10 μM ATP during the [^3H]GABA uptake assay.
(§3) The [^3H]GABA uptake data was normalized to the percentage of total uptake in the individual experiments in the presence of the lowest compound concentration or no compound present. […]

Alpha2A = biological target: T5, Alpha2A (Homo sapiens, UniProt P08913); experiment: NIMH PDSP radioligand binding, Alpha2A; conditions: radioligand [3H]rauwolscine, n=4
T5 construct: purchased NIMH Psychoactive Drug Screening Program (PDSP)

MOR = biological target: T6, MOR (Homo sapiens, UniProt P35372); experiment: NIMH PDSP radioligand binding, MOR; conditions: radioligand [3H]DAMGO, n=4
T6 construct: purchased NIMH Psychoactive Drug Screening Program (PDSP)
T6 sequence (P35372 whole entry): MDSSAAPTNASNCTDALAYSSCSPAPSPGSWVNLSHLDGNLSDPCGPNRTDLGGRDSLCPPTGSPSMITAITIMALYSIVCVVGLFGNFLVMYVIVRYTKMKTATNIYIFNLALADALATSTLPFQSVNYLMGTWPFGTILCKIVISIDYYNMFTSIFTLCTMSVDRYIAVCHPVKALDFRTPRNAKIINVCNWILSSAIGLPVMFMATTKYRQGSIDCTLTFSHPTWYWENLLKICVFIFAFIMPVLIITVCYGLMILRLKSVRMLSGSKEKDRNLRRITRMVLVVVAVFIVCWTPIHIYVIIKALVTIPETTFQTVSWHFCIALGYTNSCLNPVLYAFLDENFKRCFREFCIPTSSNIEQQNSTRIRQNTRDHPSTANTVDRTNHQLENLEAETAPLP

M4 = biological target: T7, M4 (Homo sapiens, UniProt P08173); experiment: NIMH PDSP radioligand binding, M4
T7 construct: purchased NIMH Psychoactive Drug Screening Program (PDSP)
T7 sequence (P08173 whole entry): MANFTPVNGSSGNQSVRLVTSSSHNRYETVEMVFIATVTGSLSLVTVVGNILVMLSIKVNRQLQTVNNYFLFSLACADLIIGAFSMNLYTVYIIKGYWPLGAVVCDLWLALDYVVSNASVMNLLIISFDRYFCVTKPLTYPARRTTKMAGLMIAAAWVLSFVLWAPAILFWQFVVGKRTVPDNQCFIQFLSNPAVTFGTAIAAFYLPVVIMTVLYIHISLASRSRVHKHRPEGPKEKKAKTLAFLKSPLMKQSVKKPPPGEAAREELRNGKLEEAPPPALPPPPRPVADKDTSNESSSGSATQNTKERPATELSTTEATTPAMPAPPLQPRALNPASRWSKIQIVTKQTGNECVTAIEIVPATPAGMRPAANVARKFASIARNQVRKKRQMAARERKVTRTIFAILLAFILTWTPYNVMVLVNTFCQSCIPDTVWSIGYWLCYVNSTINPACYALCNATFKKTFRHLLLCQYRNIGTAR

Alpha1D = biological target: T8, Alpha1D (Homo sapiens, UniProt P25100); experiment: NIMH PDSP radioligand binding, Alpha1D; conditions: radioligand [3H]prazosine, n=4
T8 construct: purchased NIMH Psychoactive Drug Screening Program (PDSP)
T8 sequence (P25100 whole entry): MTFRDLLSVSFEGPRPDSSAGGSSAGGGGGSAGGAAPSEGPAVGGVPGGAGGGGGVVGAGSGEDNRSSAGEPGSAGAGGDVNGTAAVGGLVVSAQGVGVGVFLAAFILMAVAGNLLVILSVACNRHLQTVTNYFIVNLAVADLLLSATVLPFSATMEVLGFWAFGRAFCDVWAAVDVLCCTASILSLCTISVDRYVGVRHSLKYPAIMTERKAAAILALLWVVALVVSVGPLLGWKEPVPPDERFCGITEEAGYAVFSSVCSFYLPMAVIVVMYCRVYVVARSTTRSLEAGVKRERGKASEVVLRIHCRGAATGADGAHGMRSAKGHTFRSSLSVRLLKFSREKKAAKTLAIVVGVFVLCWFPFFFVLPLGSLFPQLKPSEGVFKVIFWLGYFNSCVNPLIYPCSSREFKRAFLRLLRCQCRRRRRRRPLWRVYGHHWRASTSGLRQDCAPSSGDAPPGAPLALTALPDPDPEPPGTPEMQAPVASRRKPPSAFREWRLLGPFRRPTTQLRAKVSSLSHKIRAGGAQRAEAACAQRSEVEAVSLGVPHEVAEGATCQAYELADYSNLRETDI

5-HT1D = biological target: T9, 5-HT1D (Homo sapiens, UniProt P28221); experiment: NIMH PDSP radioligand binding, 5-HT1D; conditions: radioligand [3H]GR125743, n=4
T9 construct: purchased NIMH Psychoactive Drug Screening Program (PDSP)

mBGT1 = biological target: T10, mBGT1 (Mus musculus, UniProt P31651); experiment: [3H]GABA uptake at mBGT1 stably expressed in HEK-293 cells; type: cell-based
T10 construct: expressed in transfected cells
T10 sequence (P31651 1-614): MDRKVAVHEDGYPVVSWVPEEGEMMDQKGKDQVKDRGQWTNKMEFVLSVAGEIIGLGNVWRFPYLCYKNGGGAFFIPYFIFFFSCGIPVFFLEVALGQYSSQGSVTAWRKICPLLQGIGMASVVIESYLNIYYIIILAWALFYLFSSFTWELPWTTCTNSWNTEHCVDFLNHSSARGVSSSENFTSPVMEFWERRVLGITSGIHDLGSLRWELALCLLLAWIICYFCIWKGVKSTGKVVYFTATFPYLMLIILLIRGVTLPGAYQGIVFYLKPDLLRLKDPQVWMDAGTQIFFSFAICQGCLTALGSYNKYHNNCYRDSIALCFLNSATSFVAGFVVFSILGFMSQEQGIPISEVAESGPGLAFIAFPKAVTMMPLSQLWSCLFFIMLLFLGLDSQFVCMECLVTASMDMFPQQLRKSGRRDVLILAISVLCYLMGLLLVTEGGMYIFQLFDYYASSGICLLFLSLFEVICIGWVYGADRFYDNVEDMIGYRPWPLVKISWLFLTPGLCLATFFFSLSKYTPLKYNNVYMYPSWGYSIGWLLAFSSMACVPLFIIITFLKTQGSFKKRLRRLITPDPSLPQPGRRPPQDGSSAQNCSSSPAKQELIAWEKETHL
Procedure: as §1, §2
The [^3H]GABA uptake data was normalized to the percentage of total uptake in the individual experiments in the presence of the lowest compound concentration or no compound present. Data presented is the pooled data of at least three independent experiments with three technical replicates. Concentration–response curves (CRCs) were fitted with GraphPad Prism (version 8.2.1, Yosemite, GraphPad Software, San Diego, CA, USA) by non-linear regression to the sigmoidal concentration response model: Y=Bottom+(Top-Bottom)/1+10^LogIC50-X∗nH where Top is the Top plateau, Bottom is the Bottom plateau, X is the logarithm of the concentration of the compound, LogIC50 is the concentration giving a response halfway between Top and Bottom,and nH is the Hill slope.
The best fit for CRCs obtained with the [^3H]GABA uptake assay was identified by the extra-sum-of-squares F test (for convenience referred to as F test).

D1 = biological target: T11, D1 (Homo sapiens, UniProt P21728); experiment: NIMH PDSP radioligand binding, D1; conditions: radioligand [3H]SCH23390, n=4
T11 construct: purchased NIMH Psychoactive Drug Screening Program (PDSP)
T11 sequence (P21728 whole entry): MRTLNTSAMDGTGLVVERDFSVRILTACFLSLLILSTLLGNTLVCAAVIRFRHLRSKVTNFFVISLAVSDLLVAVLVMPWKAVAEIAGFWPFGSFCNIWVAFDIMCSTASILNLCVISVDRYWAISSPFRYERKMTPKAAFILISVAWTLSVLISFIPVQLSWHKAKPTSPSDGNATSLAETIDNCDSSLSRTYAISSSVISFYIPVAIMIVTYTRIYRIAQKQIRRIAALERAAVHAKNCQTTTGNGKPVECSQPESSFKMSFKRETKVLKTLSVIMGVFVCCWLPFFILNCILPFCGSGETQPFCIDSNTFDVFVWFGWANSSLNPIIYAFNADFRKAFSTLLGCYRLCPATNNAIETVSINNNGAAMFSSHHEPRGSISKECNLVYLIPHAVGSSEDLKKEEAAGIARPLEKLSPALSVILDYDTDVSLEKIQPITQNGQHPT

[1] = test system: tsA201 cells transiently expressing hBGT1; experiment: Fluo-4 Ca2+-assay in tsA201 cells transiently expressing hBGT1; type: cell-based, human; conditions: within the 3 min timeframe; blocked by BAPTA/AM
Procedure: Emission was recorded for 20 s. before adding the compounds (at 4 × concentrations) to the HBSS-HEPES buffer to determine the baseline. […] Data presented is the pooled data of at least three independent experiments with three technical replicates. Changes in fluorescence units (ΔFU) were determined as the maximum fluorescent signal within the 190 s minus the average of the baseline.

mGAT3 = biological target: T12, mGAT3 (Mus musculus, UniProt P31650); experiment: [3H]GABA uptake at mGAT3 stably expressed in HEK-293 cells; type: cell-based; conditions: N=3
T12 construct: expressed in transfected cells
T12 sequence (P31650 whole entry): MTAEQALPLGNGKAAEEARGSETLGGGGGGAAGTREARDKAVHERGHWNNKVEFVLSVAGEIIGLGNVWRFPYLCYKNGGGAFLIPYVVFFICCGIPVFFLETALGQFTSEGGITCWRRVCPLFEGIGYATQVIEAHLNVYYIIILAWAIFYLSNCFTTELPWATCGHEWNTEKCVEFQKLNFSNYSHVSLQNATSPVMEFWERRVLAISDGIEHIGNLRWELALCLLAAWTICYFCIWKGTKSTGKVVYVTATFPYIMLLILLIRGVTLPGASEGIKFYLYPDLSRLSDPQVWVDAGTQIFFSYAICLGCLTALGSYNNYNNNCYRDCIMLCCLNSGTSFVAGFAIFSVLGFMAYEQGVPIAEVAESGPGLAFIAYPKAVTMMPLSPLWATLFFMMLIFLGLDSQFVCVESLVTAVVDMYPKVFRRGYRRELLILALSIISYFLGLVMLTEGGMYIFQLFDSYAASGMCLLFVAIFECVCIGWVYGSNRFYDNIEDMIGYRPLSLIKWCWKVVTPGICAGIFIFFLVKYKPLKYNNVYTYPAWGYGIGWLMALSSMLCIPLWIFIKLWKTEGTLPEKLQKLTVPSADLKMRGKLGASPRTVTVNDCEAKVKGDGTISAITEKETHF
Procedure: as §1, §2, §3

hBGT1 Q299L = biological target: T13, hBGT1 Q299L (Homo sapiens, UniProt P48065, Q299L); experiment: [3H]GABA uptake at hBGT1 Q299L mutant in tsA201 cells; type: cell-based; conditions: data not shown
T13 construct: expressed in transfected cells; host or cells: tsA201 (transient)
T13 sequence (P48065 whole entry Q299L): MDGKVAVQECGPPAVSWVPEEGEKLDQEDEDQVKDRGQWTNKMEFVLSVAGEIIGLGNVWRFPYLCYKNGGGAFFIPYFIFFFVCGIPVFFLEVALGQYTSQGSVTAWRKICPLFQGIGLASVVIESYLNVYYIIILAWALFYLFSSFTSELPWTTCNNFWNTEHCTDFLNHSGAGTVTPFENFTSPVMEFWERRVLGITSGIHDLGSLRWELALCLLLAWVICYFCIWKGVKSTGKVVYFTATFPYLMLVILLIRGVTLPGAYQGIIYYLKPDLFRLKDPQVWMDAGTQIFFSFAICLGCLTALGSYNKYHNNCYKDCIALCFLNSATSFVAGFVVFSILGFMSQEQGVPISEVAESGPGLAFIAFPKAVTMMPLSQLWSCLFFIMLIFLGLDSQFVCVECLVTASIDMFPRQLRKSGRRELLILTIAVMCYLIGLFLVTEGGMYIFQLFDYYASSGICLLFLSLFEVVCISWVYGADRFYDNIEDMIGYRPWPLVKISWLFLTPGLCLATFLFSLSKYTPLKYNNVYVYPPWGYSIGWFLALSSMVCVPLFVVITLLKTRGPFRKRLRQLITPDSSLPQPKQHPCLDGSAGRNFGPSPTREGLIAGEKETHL
Procedure: as §1, §2, §3

5-HT6 = biological target: T14, 5-HT6 (Homo sapiens, UniProt P50406); experiment: NIMH PDSP radioligand binding, 5-HT6; conditions: radioligand [3H]LSD, n=4
T14 construct: NIMH PDSP (screening service)

5-HT1A = biological target: T15, 5-HT1A (Homo sapiens, UniProt P08908); experiment: NIMH PDSP radioligand binding, 5-HT1A; conditions: radioligand [3H]8-OH-PDAT, n=4
T15 construct: purchased NIMH Psychoactive Drug Screening Program (PDSP)
T15 sequence (P08908 whole entry): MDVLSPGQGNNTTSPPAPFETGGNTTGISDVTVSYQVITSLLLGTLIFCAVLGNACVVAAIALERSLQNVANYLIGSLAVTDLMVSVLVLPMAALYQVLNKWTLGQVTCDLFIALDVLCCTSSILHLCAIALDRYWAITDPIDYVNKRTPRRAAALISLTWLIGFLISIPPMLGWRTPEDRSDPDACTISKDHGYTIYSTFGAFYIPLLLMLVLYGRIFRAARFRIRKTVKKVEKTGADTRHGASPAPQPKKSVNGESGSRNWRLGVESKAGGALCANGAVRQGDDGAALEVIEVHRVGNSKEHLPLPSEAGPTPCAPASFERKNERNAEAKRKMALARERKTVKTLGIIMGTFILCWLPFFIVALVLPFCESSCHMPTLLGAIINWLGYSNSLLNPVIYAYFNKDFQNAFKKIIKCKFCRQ

M3 = biological target: T16, M3 (Homo sapiens, UniProt P20309); experiment: NIMH PDSP radioligand binding, M3
T16 construct: purchased NIMH Psychoactive Drug Screening Program (PDSP)
T16 sequence (P20309 whole entry): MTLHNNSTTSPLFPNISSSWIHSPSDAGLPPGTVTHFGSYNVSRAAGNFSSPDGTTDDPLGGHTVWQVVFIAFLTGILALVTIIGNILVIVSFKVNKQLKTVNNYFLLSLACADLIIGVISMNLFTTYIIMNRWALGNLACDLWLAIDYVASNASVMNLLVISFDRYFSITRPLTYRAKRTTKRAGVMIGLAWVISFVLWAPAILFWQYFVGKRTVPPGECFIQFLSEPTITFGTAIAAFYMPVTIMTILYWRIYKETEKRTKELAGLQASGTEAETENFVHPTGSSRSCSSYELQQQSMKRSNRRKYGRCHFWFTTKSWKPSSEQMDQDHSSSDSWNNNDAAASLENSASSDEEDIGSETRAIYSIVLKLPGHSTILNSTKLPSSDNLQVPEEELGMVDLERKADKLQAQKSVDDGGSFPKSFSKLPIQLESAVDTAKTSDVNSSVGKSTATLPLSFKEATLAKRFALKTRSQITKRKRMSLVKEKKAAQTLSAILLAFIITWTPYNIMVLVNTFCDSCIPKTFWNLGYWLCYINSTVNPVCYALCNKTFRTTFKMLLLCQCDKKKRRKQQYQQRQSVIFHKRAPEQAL

T1 sequence (P21918 whole entry): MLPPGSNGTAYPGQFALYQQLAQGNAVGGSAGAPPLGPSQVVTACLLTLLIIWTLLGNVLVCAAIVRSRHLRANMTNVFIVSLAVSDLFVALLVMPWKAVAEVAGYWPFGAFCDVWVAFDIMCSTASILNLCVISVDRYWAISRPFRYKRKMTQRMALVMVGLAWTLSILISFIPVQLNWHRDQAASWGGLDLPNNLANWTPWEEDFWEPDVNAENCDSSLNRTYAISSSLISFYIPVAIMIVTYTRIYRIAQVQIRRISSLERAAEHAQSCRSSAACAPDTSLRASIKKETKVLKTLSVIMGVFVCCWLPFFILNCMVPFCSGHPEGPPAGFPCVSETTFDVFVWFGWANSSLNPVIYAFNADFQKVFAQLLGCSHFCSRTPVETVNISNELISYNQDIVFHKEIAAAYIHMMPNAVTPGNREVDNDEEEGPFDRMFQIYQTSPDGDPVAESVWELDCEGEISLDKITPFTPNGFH

Cc1ccsc1C(=CCCN(C)[C@H]1CCCC[C@H]1C(=O)O)c1sccc1C [SBV2-114, (1R,2S)-2-((4,4-bis(3-methylthiophen-2-yl)but-3-en-yl)(methyl)amino)cyclohexanecarboxylic acid]
inhibition at 10 µM (D5; 10 μM, n=4): 51.7% | Ki (D5; full curve, printed with 'ave'): 10 µM | inhibition at 10 µM (M2): -1.9% | inhibition at 10 µM (DOR): 36.6% | inhibition profile and activity at hGAT3 L314Q (hGAT3 L314Q): activity in hGAT3 L314Q similar to hBGT1 | inhibition at 10 µM (Alpha2A): 42.8% | inhibition at 10 µM (MOR): 42% | inhibition at 10 µM (M4): -5.7% | inhibition at 10 µM (Alpha1D): -4.7% | inhibition at 10 µM (5-HT1D): 19.6% | IC50 (mBGT1): 3.8 µM | % inhibition (Frac value) at the low IC50 (mBGT1; biphasic fit): 45% | Fit (mBGT1; preferred model, extra-sum-of-squares F test, N=5): Biphasic | IC50 (mBGT1; read-out: IC50, low affinity component (high IC50), biphasic fit, 30 nM [3H]GABA, 3 min, HEK-293): 408 µM | inhibition at 10 µM (D1): 14% | intracellular Ca2+ increase [1]: triggered an intracellular Ca^2+ increase at 200 μM and 500 μM | IC50 (mGAT3; ambiguous fit): > 1000 µM | Fit (mGAT3; preferred model): Ambiguous | inhibition profile and activity at hBGT1 Q299L (hBGT1 Q299L): clear biphasic inhibition profile and no significant altered activity | inhibition at 10 µM (5-HT6): 50% | inhibition at 10 µM (5-HT1A): -7.9% | inhibition at 10 µM (M3): 55.4%
